Laboratory results reported in publication PMC5218480 (PLoS ONE, 2017).

Tested on: MV-4-11 cells
Experiment: Gene expression microarray analysis (Affymetrix PrimeView) and GSEA
Type: cell-based, human
Set-up: RFU PODN (11730768_x_at) / Fold change /veh PODN (11730768_x_at) / RFU LINC00158 (11744669_a_at) / Fold change /veh LINC00158 (11744669_a_at) / RFU DUSP10 (11751237_a_at) / Fold change /veh DUSP10 (11751237_a_at) / RFU ID3 (11757404_x_at) / Fold change /veh ID3 (11757404_x_at) / RFU PLEKHG5 (11737974_s_at) / Fold change /veh PLEKHG5 (11737974_s_at) / RFU LRRC4B (11730491_at) / Fold change /veh LRRC4B (11730491_at) / RFU GIMAP4 (11747438_a_at) / Fold change /veh GIMAP4 (11747438_a_at) / RFU KRT8 (11758183_x_at) / Fold change /veh KRT8 (11758183_x_at) / RFU CNN1 (11734310_a_at) / Fold change /veh CNN1 (11734310_a_at) / RFU VPS37D (11726825_at) / Fold change /veh VPS37D (11726825_at) / RFU C10orf10 (11716522_x_at) / Fold change /veh C10orf10 (11716522_x_at) / RFU KIR2DL2 /// KIR2DL4 /// KIR2DL5A /// KIR2DL5B /// KIR2DS1 /// KIR2DS2 /// KIR2DS3 /// KIR2DS4 /// KIR3DL3 /// KIR3DL3 /// KIR3DS1 (11738374_at) / Fold change /veh KIR2DL2 /// KIR2DL4 /// KIR2DL5A /// KIR2DL5B /// KIR2DS1 /// KIR2DS2 /// KIR2DS3 /// KIR2DS4 /// KIR3DL3 /// KIR3DL3 /// KIR3DS1 (11738374_at) / RFU C1QL1 (11718748_at) / Fold change /veh C1QL1 (11718748_at) / RFU TMPRSS4 (11747572_a_at) / Fold change /veh TMPRSS4 (11747572_a_at) / RFU HAMP (11756126_x_at) / Fold change /veh HAMP (11756126_x_at) / RFU RNFT2 (11725882_a_at) / Fold change /veh RNFT2 (11725882_a_at) / RFU NR4A2 (11747474_a_at) / Fold change /veh NR4A2 (11747474_a_at) / RFU ABCC12 (11746883_a_at) / Fold change /veh ABCC12 (11746883_a_at) / RFU TMEM136 (11760407_x_at) / Fold change /veh TMEM136 (11760407_x_at) / RFU CLDN22 /// WWC2 (11732394_at) / Fold change /veh CLDN22 /// WWC2 (11732394_at) / RFU HLA-DPB1 (11760878_x_at) / Fold change /veh HLA-DPB1 (11760878_x_at) / RFU SPINT1 (11716480_a_at) / Fold change /veh SPINT1 (11716480_a_at) / RFU GAP43 (11754022_s_at) / Fold change /veh GAP43 (11754022_s_at) / RFU A4GNT (11735810_at) / Fold change /veh A4GNT (11735810_at) / RFU PRB3 (11715151_x_at) / Fold change /veh PRB3 (11715151_x_at) / RFU TUBB4B (11761932_at) / Fold change /veh TUBB4B (11761932_at) / RFU CAPN14 (11732068_a_at) / Fold change /veh CAPN14 (11732068_a_at) / RFU TMCC2 (11721928_a_at) / Fold change /veh TMCC2 (11721928_a_at) / RFU IRGQ (11745062_a_at) / Fold change /veh IRGQ (11745062_a_at) / RFU FAM174B (11720279_a_at) / Fold change /veh FAM174B (11720279_a_at) / RFU TMPRSS4 (11748680_a_at) / Fold change /veh TMPRSS4 (11748680_a_at) / RFU FAM212B (11763350_a_at) / Fold change /veh FAM212B (11763350_a_at) / RFU PLEKHG5 (11743358_a_at) / Fold change /veh PLEKHG5 (11743358_a_at) / RFU ZSCAN30 (11745921_a_at) / Fold change /veh ZSCAN30 (11745921_a_at) / RFU CMKLR1 (11741424_a_at) / Fold change /veh CMKLR1 (11741424_a_at) / RFU LOC101060620 /// MAPK8IP1 (11723275_at) / Fold change /veh LOC101060620 /// MAPK8IP1 (11723275_at) / RFU SPTSSB (11747773_x_at) / Fold change /veh SPTSSB (11747773_x_at) / RFU PRSS12 (11739890_at) / Fold change /veh PRSS12 (11739890_at) / RFU BIN1 (11741810_x_at) / Fold change /veh BIN1 (11741810_x_at) / RFU WNT11 (11732464_a_at) / Fold change /veh WNT11 (11732464_a_at) / RFU C10orf10 (11716521_a_at) / Fold change /veh C10orf10 (11716521_a_at) / RFU C5orf56 (11738089_at) / Fold change /veh C5orf56 (11738089_at) / RFU CYB561 (11721691_x_at) / Fold change /veh CYB561 (11721691_x_at) / RFU ANKRD19P (11752326_a_at) / Fold change /veh ANKRD19P (11752326_a_at) / RFU OR2T12 /// OR2T33 /// OR2T8 (11738714_s_at) / Fold change /veh OR2T12 /// OR2T33 /// OR2T8 (11738714_s_at) / RFU VCAN (11748164_a_at) / Fold change /veh VCAN (11748164_a_at) / RFU JSRP1 (11732532_at) / Fold change /veh JSRP1 (11732532_at) / RFU KRTAP10-11 (11738290_x_at) / Fold change /veh KRTAP10-11 (11738290_x_at) / RFU MYO3A (11730013_a_at) / Fold change /veh MYO3A (11730013_a_at) / RFU EBF3 (11725865_a_at) / Fold change /veh EBF3 (11725865_a_at) / RFU CAMK2N1 (11719241_x_at) / Fold change /veh CAMK2N1 (11719241_x_at) / RFU C5orf56 (11738088_a_at) / Fold change /veh C5orf56 (11738088_a_at) / RFU OLFML3 (11715873_a_at) / Fold change /veh OLFML3 (11715873_a_at) / RFU LOC100653217 /// NTM (11731650_a_at) / Fold change /veh LOC100653217 /// NTM (11731650_a_at) / RFU MAPK11 (11762145_a_at) / Fold change /veh MAPK11 (11762145_a_at) / RFU FIZ1 (11724087_x_at) / Fold change /veh FIZ1 (11724087_x_at) / RFU OASL (11726364_x_at) / Fold change /veh OASL (11726364_x_at) / RFU SOX15 (11748057_x_at) / Fold change /veh SOX15 (11748057_x_at) / RFU CD79A (11719716_a_at) / Fold change /veh CD79A (11719716_a_at) / RFU HIST1H1D (11736915_at) / Fold change /veh HIST1H1D (11736915_at) / RFU CASKIN2 (11723855_a_at) / Fold change /veh CASKIN2 (11723855_a_at) / RFU LOC730098 (11760151_x_at) / Fold change /veh LOC730098 (11760151_x_at) / RFU OR4N2 (11742367_at) / Fold change /veh OR4N2 (11742367_at) / RFU PRRT2 (11749266_a_at) / Fold change /veh PRRT2 (11749266_a_at) / RFU SNX32 (11753110_a_at) / Fold change /veh SNX32 (11753110_a_at) / RFU CDHR5 (11726645_a_at) / Fold change /veh CDHR5 (11726645_a_at) / RFU RCAN1 (11760418_a_at) / Fold change /veh RCAN1 (11760418_a_at) / RFU FAM167A (11723789_a_at) / Fold change /veh FAM167A (11723789_a_at) / RFU FAM26E (11764081_at) / Fold change /veh FAM26E (11764081_at) / RFU ISYNA1 (11749810_s_at) / Fold change /veh ISYNA1 (11749810_s_at) / RFU ACY1 (11761880_at) / Fold change /veh ACY1 (11761880_at) / RFU 11764098_at / Fold change /veh 11764098_at / RFU SAMD14 (11745864_x_at) / Fold change /veh SAMD14 (11745864_x_at) / RFU NPB (11741838_a_at) / Fold change /veh NPB (11741838_a_at) / RFU TMPRSS6 (11731388_a_at) / Fold change /veh TMPRSS6 (11731388_a_at) / RFU KRTAP10-2 (11738614_at) / Fold change /veh KRTAP10-2 (11738614_at) / RFU ARHGAP8 /// PRR5-ARHGAP8 (11727945_x_at) / Fold change /veh ARHGAP8 /// PRR5-ARHGAP8 (11727945_x_at) / RFU KRTAP5-7 /// NADSYN1 (11734609_at) / Fold change /veh KRTAP5-7 /// NADSYN1 (11734609_at) / RFU RASL12 (11751679_a_at) / Fold change /veh RASL12 (11751679_a_at) / RFU CDKN2B (11736163_a_at) / Fold change /veh CDKN2B (11736163_a_at) / RFU PRF1 (11729649_at) / Fold change /veh PRF1 (11729649_at) / RFU, ZNF638 /// ZNF638-IT1 / Fold change vs veh, ZNF638 /// ZNF638-IT1 / RFU, PANK3 / Fold change vs veh, PANK3 / RFU, SH3YL1 / Fold change vs veh, SH3YL1 / RFU, ZEB2 / Fold change vs veh, ZEB2 / RFU, NRIP1 / Fold change vs veh, NRIP1 / RFU, PTTG1IP / Fold change vs veh, PTTG1IP / RFU, CAPN2 / Fold change vs veh, CAPN2 / RFU, MED14 / Fold change vs veh, MED14 / RFU, SNORA58 / Fold change vs veh, SNORA58 / RFU, C1orf63 / Fold change vs veh, C1orf63 / RFU, LRRFIP1 / Fold change vs veh, LRRFIP1 / RFU, NDUFAF7 / Fold change vs veh, NDUFAF7 / RFU, SLC12A2 / Fold change vs veh, SLC12A2 / RFU, IBTK / Fold change vs veh, IBTK / RFU, ESF1 / Fold change vs veh, ESF1 / Fold change vs veh, TMEM50B / RFU, TAOK1 / Fold change vs veh, TAOK1 / RFU, ACBD3 / Fold change vs veh, ACBD3 / RFU, TMA16 / Fold change vs veh, TMA16 / RFU, RWDD3 / Fold change vs veh, RWDD3 / RFU, BCAT1 / Fold change vs veh, BCAT1 / RFU, EDEM3 / Fold change vs veh, EDEM3 / RFU, TMEM33 / Fold change vs veh, TMEM33 / RFU, WDR75 / Fold change vs veh, WDR75 / RFU, AHCTF1 / Fold change vs veh, AHCTF1 / RFU, TFRC / Fold change vs veh, TFRC / RFU, ZDHHC17 / Fold change vs veh, ZDHHC17 / RFU, NOM1 / Fold change vs veh, NOM1 / RFU, ARL8B / Fold change vs veh, ARL8B / RFU, ZBTB11 / Fold change vs veh, ZBTB11 / RFU, TAMM41 / Fold change vs veh, TAMM41 / RFU, KIAA1704 /// LOC100996395 / Fold change vs veh, KIAA1704 /// LOC100996395 / RFU, ING1 / Fold change vs veh, ING1 / RFU, TRMT61B / Fold change vs veh, TRMT61B / RFU, FUBP3 / Fold change vs veh, FUBP3 / RFU, TP53 / Fold change vs veh, TP53 / RFU, TNKS2 / Fold change vs veh, TNKS2 / RFU, ZFP14 / Fold change vs veh, ZFP14 / RFU, ACTR2 / Fold change vs veh, ACTR2 / RFU, PPP3R1 / Fold change vs veh, PPP3R1 / RFU, PIK3R1 / Fold change vs veh, PIK3R1 / RFU, HNRNPA1 / Fold change vs veh, HNRNPA1 / RFU, RNF170 / Fold change vs veh, RNF170 / RFU, ZNF28 / Fold change vs veh, ZNF28 / RFU, RNGTT / Fold change vs veh, RNGTT / RFU, OGT / Fold change vs veh, OGT / RFU, BRD1 / Fold change vs veh, BRD1 / RFU, MARS / Fold change vs veh, MARS / RFU, ZNF655 / Fold change vs veh, ZNF655 / RFU, FAHD1 / Fold change vs veh, FAHD1 / RFU, BDP1 / Fold change vs veh, BDP1 / RFU, LRRCC1 / Fold change vs veh, LRRCC1 / RFU, ARID1A / Fold change vs veh, ARID1A / RFU, ZNF146 / Fold change vs veh, ZNF146 / RFU, ZNF330 / Fold change vs veh, ZNF330 / RFU, GPN3 / Fold change vs veh, GPN3 / RFU, C9orf123 / Fold change vs veh, C9orf123 / RFU, N4BP2L2 / Fold change vs veh, N4BP2L2 / RFU, ARFIP1 / Fold change vs veh, ARFIP1 / RFU, FAM179B / Fold change vs veh, FAM179B / RFU, BCL10 / Fold change vs veh, BCL10 / RFU, UHRF1BP1L / Fold change vs veh, UHRF1BP1L / RFU, BET1 / Fold change vs veh, BET1 / RFU, CNOT2 / Fold change vs veh, CNOT2 / RFU, ZNF268 / Fold change vs veh, ZNF268 / Fold change vs veh, ZNF507 / RFU, DGCR2 / Fold change vs veh, DGCR2 / RFU, WDSUB1 / Fold change vs veh, WDSUB1 / Fold change vs veh, HSP90B1 /// MIR3652 / RFU, ADSS / Fold change vs veh, ADSS / RFU, GK / Fold change vs veh, GK / RFU, ZNF148 / Fold change vs veh, ZNF148 / RFU, TAF9 / Fold change vs veh, TAF9 / RFU, SLC1A5 / Fold change vs veh, SLC1A5 / RFU, SLMO2 / Fold change vs veh, SLMO2 / RFU, ABCC4 / Fold change vs veh, ABCC4 / RFU, LOC101060439 /// RAP1B / Fold change vs veh, LOC101060439 /// RAP1B / RFU, RFX7 / Fold change vs veh, RFX7 / RFU, GTPBP10 / Fold change vs veh, GTPBP10 / RFU, CNEP1R1 / Fold change vs veh, CNEP1R1 / RFU, BIVM-ERCC5 /// ERCC5 / Fold change vs veh, BIVM-ERCC5 /// ERCC5 / RFU, ILF3 / Fold change vs veh, ILF3 / RFU 11762660_at / Fold change /veh 11762660_at / RFU VCAN (11757783_s_at) / Fold change /veh VCAN (11757783_s_at) / RFU DDX43 (11728927_at) / Fold change /veh DDX43 (11728927_at) / RFU KRT8 (11758188_x_at) / Fold change /veh KRT8 (11758188_x_at) / RFU NKD1 (11759106_at) / Fold change /veh NKD1 (11759106_at) / RFU SRD5A1 (11742802_a_at) / Fold change /veh SRD5A1 (11742802_a_at) / RFU TPSAB1 /// TPSB2 (11721975_s_at) / Fold change /veh TPSAB1 /// TPSB2 (11721975_s_at) / RFU GSTM3 (11746129_a_at) / Fold change /veh GSTM3 (11746129_a_at) / RFU IL23R (11737362_x_at) / Fold change /veh IL23R (11737362_x_at) / RFU TMEM51 (11727254_a_at) / Fold change /veh TMEM51 (11727254_a_at) / RFU PIWIL2 (11732686_x_at) / Fold change /veh PIWIL2 (11732686_x_at) / RFU ORM1 (11744905_x_at) / Fold change /veh ORM1 (11744905_x_at) / RFU CCDC152 (11743942_at) / Fold change /veh CCDC152 (11743942_at) / RFU ECM1 (11717891_a_at) / Fold change /veh ECM1 (11717891_a_at) / RFU IL23R (11748794_a_at) / Fold change /veh IL23R (11748794_a_at) / RFU TNFAIP8L3 (11732012_x_at) / Fold change /veh TNFAIP8L3 (11732012_x_at) / RFU MBOAT4 (11741988_at) / Fold change /veh MBOAT4 (11741988_at) / RFU 11764193_at / Fold change /veh 11764193_at / RFU TMEM53 (11763286_at) / Fold change /veh TMEM53 (11763286_at) / RFU MAGEB2 (11727129_at) / Fold change /veh MAGEB2 (11727129_at) / RFU TMEM200A (11744735_a_at) / Fold change /veh TMEM200A (11744735_a_at) / RFU CCDC152 (11751479_a_at) / Fold change /veh CCDC152 (11751479_a_at) / RFU FAM211A (11726209_a_at) / Fold change /veh FAM211A (11726209_a_at) / RFU RGS16 (11746705_a_at) / Fold change /veh RGS16 (11746705_a_at) / RFU VCAN (11755009_s_at) / Fold change /veh VCAN (11755009_s_at) / RFU RHOB (11743442_s_at) / Fold change /veh RHOB (11743442_s_at) / RFU RGS16 (11720943_a_at) / Fold change /veh RGS16 (11720943_a_at) / RFU RGS16 (11720944_at) / Fold change /veh RGS16 (11720944_at) / RFU, VPS4B / Fold change vs veh, VPS4B / RFU, CREB1 / Fold change vs veh, CREB1 / RFU, DNAJC13 / Fold change vs veh, DNAJC13 / RFU, GNAQ / Fold change vs veh, GNAQ / RFU, CDK5R1 / Fold change vs veh, CDK5R1 / RFU, ZRANB3 / Fold change vs veh, ZRANB3 / RFU, CUL4A / Fold change vs veh, CUL4A / RFU, CCNY / Fold change vs veh, CCNY / RFU, UFL1 / Fold change vs veh, UFL1 / RFU, COG3 / Fold change vs veh, COG3 / RFU, DIAPH2 / Fold change vs veh, DIAPH2 / RFU, SKA2 / Fold change vs veh, SKA2 / RFU, AFF3 / Fold change vs veh, AFF3 / RFU, LMF1 / Fold change vs veh, LMF1 / RFU, IPO11 / Fold change vs veh, IPO11 / RFU, DFFB / Fold change vs veh, DFFB / RFU, FOXP1 / Fold change vs veh, FOXP1 / RFU, CARD8 / Fold change vs veh, CARD8 / RFU, STRN3 / Fold change vs veh, STRN3 / RFU, ADK / Fold change vs veh, ADK / RFU, RASSF2 / Fold change vs veh, RASSF2 / RFU, WIPF1 / Fold change vs veh, WIPF1 / RFU, LARP1B / Fold change vs veh, LARP1B / RFU, RASA1 / Fold change vs veh, RASA1 / RFU, RB1 / Fold change vs veh, RB1 / RFU, PPFIA1 / Fold change vs veh, PPFIA1 / RFU, MAT2A / Fold change vs veh, MAT2A / RFU, CCT5 / Fold change vs veh, CCT5 / RFU, WDR92 / Fold change vs veh, WDR92 / RFU, CUX1 / Fold change vs veh, CUX1 / RFU, TTC7A / Fold change vs veh, TTC7A / RFU, TMEM135 / Fold change vs veh, TMEM135 / RFU, DEPTOR / Fold change vs veh, DEPTOR / RFU, CPM / Fold change vs veh, CPM / RFU, DNAJB6 / Fold change vs veh, DNAJB6 / RFU, CACNA2D3 / Fold change vs veh, CACNA2D3 / RFU, DTX4 / Fold change vs veh, DTX4 / RFU, TFCP2 / Fold change vs veh, TFCP2 / RFU, GMCL1 /// GMCL1P1 / Fold change vs veh, GMCL1 /// GMCL1P1 / RFU, AEBP2 / Fold change vs veh, AEBP2 / RFU, SNHG1 /// SNORD22 /// SNORD25 /// SNORD26 /// SNORD27 /// SNORD28 /// SNORD29 /// SNORD31 / Fold change vs veh, SNHG1 /// SNORD22 /// SNORD25 /// SNORD26 /// SNORD27 /// SNORD28 /// SNORD29 /// SNORD31 / Fold change (Aza/veh), C12orf56 (ProbeSet 11735607_a_at) / Fold change (ACY-1035/veh), C12orf56 (ProbeSet 11735607_a_at) / Fold change (Aza/veh), FGFR1OP (ProbeSet 11751329_s_at) / Fold change (ACY-1035/veh), FGFR1OP (ProbeSet 11751329_s_at) / Fold change (Aza/veh), VPS36 (ProbeSet 11739960_a_at) / Fold change (ACY-1035/veh), VPS36 (ProbeSet 11739960_a_at) / RFU SYPL1 (11715823_x_at) / Fold change /veh SYPL1 (11715823_x_at) / RFU IGFBP7 (11715501_s_at) / Fold change /veh IGFBP7 (11715501_s_at) / RFU REEP3 (11722064_at) / Fold change /veh REEP3 (11722064_at) / RFU IGLL1 (11728026_x_at) / Fold change /veh IGLL1 (11728026_x_at): dose or concentration left out as unconfirmed
Conditions: MV-4-11 cells, 48 hours

Nc1ncn([C@@H]2O[C@H](CO)[C@@H](O)[C@H]2O)c(=O)n1 [azacitidine]
Fold change /veh LINC00158 (11744669_a_at): 1.04
